Molecules are shown by their SMILES. Read-outs that look alike come from different tables or passages of the source.

The nature of data set [1]: Solubility (PBS pH 7.4) of compound solids. Type of data set: physicochemical. As to conditions: aqueous buffer, thermodynamic from solid, PBS pH 7.4, 25° C. On the procedure: The solubility (PBS pH 7.4) of compound solids to be tested was determined by LC/MS/MS. Approximately 1 mg of each compound powder was accurately weighed into a glass vial, and DMSO was added in a volume of 1 mL per milligram of compound. […] In 490 μL of water and acetonitrile (1:1) containing an internal standard, 5 μL of 1 mg/mL solution and 5 μL of PBS pH 7.4 solution were mixed to prepare 10 μg/mL standard concentration solution of the sample to be tested. Then 10 μL of 10 μg/mL solution was diluted in 90 μL of water and acetonitrile (1:1) containing an internal standard to prepare 1 μg/mL standard concentration solution of the sample to be tested. The dilution factor of the standard solution can be adjusted according to the strength of response signals in LC/MS. Approximately 1 mg of each compound powder was accurately weighed into a glass vial, and PBS pH 7.4 solution was added in a volume of 1 mL per milligram of compound. A stir bar was added to each vial, and the solubility sample vial was shaken at 1100 rpm at 25° C. for 24 h. After shaking, the stir bar was removed, and the sample was transferred to a filter plate and filtered using a vacuum manifold. […]
The resulting samples were determined by LC/MS/MS. The sample solubility was calculated from peak areas of the solution of the compound to be tested and the standard concentration solution, according to the following equation: […]

For data set [2], the target named is PXR (Homo sapiens (Human), UniProt O75469). Kind of data set: Potential for PXR activation in DPX2 cells. The format is cell-based. The note with it: 30 μM, versus 20 μM rifampicin. On the procedure: DMSO solutions of the compounds to be tested and the control compound rifampicin solution were prepared, and diluted with Puracyp dosing medium (Puracyp, Cat. No: D-500-100) at 37° C. to respective test concentrations. The final concentrations of the compounds to be tested were 30 μM, 10 μM, and 1 μM, respectively, and the final concentration of rifampicin was 20 μM. The final concentration of DMSO in the test solution was 0.1%. In addition, 0.1% DMSO solution prepared with Puracyp dosing medium was used as a control.
DPX2 cells were suspended in Puracyp Culture medium (Puracyp, Cat No.: C-500-100) at a cell density of 4.5×10^5 cell/mL. Then, the suspension was placed on a 96-well culture plate at 100 μL/well for incubation at 37° C. for 24 h. The medium in appropriate wells of the 96-well culture plate was replaced (three times per well) by 100 μL of solution of the compounds to be tested and a control compound solution. After replacement, the plate was incubated at 37° C. for 24 h. The medium was then replaced (three times per well) by a newly prepared test solution of the compounds to be tested and a rifampicin test solution, and the plate was incubated at 37° C. for 24 h.
The medium in the 96-well culture plate was pipetted and washed twice with PBS. To each well, 50 μL of reagent diluted as required by CellTiter-Fluor™ Cell Viability Assay Kit (Promega, Cat. No.: G6082) was added, and incubated at 37° C. for 0.5 h. The 96-well plate was cooled to room temperature, and the fluorescence value of each well at 505 nm was measured in a fluorescence mode with a microplate reader at an excitation wavelength of 400 nm. Then, 50 μL of reagent prepared as required by One-Glo Luciferase Assay System (Promega, Cat. No.: E6120) was added to each well, and the mixture was incubated at room temperature for 5 min. The luminescence value of each well was read by using a lumen meter.
Normalized luciferase activity was determined by RLU/RFU, and the RLU and RFU of the samples were mean values of duplicate wells, respectively.
[formula] • Fold of activation: fold of activation of normalized luciferase; • RLUtest: measured luminescence value of test wells at each test dose of test compounds; • RLUvehicle: measured luminescence value of test wells when tested with the control DMSO solution; • RFUtest: measured fluorescence value of test wells at each test dose of test compounds; • RFUvehicle: measured fluorescence value of test wells when tested with the control DMSO solution.
The percentage of positive control was calculated as follows:
% Positive control=(fold activationtest compound−1)/(fold activationpositive control compound−1)×100% • % Positive control: percentage of PXR activation compared with 20 μM rifampicin activation at each test dose of test compounds; • Fold activationtest compound: fold of activation of normalized luciferase at each test dose of test compounds; • Fold activationpositive control compound: fold of activation of normalized luciferase of test compounds under 20 μM rifampicin.

PXR, sequence (O75469 whole entry): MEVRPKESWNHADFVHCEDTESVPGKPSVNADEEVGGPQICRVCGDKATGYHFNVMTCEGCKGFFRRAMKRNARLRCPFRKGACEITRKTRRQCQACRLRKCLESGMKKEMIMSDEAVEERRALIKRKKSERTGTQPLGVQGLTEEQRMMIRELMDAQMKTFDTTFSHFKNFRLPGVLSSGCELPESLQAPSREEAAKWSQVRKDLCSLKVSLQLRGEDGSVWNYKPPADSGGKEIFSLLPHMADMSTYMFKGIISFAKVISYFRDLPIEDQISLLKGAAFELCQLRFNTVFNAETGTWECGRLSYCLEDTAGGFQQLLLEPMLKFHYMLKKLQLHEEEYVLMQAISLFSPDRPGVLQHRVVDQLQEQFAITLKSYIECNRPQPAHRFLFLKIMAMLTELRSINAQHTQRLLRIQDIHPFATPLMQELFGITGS

What is called solubility is how much of the substance goes into solution per volume. As to `COc1ncnc(C2CC2)c1-c1ncc2c(n1)N(Cc1ccc(-c3nc(C(F)(F)F)cn3C)cc1)CC(=O)N2C` [Compound 11, 2-(4-cyclopropyl-6-methoxypyrimidin-5-yl)-5-methyl-8-(4-(1-methyl-4-(trifluoromethyl)-1H-imidazol-2-yl)benzyl)-7,8-dihydropteridin-6(5H)-one], the solubility at 24 h in data set [1] (read-out: Calculated solubility) was 181 µM; in data set [1] (read-out: Solubility), 99.7 µg/mL. In data set [2], the “PXR activation (% Positive control)” value came out at 14.0 % Positive control.

Source of the values: patent US20240226107A1, “UBIQUITIN-SPECIFIC PROTEASE 1 (USP1) INHIBITOR” (SIMCERE ZAIMING PHARMACEUTICAL CO., LTD., priority 2021, published 2024).
